ChEMBL document CHEMBL1201862, “PubChem BioAssay data set” (2004)
Active and inactive are the calls of the source. Rule as the data show it, for most assays here: actives have a measured EC50 and inactives only a lower limit.

Assays:
Streptococcus = assay: GAS UMAA2166 growth inhibition – luminescence, BacTiterGlo, counter-screen for streptokinase expression inhibitor project, dose response (AID 1915); format: functional, organism-based;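 also: potency for reduction of bacterial viability or growth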
[1] = system: Streptococcus sp. 'group A'; assay: Streptococcus pyogenes SK(-)GAS viability under kanamycin – luminescence, BacTiterGlo, confirmation, counter-screen for streptokinase expression inhibitor project, dose response (AID 1900); format: functional, organism-based
Streptokinase A = molecular target: T1, Streptokinase A (Streptococcus pyogenes serotype M1, UniProt P10520); assay: viability-normalized secreted streptokinase activity reduction – plasminogen activation absorbance, OD405, dose response (AID 1914); format: functional, Streptococcus pyogenes M1 GAS;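 also: secreted streptokinase activity via plasminogen activation per viability signal from cell pellet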
T1 sequence (P10520 whole entry): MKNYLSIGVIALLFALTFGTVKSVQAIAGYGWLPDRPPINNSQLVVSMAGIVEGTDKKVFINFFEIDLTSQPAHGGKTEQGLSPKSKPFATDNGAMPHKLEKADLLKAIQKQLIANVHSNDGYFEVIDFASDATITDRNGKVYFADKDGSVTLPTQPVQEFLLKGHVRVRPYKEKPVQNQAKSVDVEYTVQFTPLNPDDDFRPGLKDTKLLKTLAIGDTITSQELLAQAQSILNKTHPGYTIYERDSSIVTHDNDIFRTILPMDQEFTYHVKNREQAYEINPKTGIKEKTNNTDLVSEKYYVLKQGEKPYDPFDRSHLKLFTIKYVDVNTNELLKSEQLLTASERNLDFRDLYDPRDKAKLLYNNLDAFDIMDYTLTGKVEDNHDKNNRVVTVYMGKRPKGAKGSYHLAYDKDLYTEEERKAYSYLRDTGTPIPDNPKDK

Protein RecA = molecular target: T2, Protein RecA (Mycobacterium tuberculosis, UniProt P9WHJ3); assay: Fluorescence Cell-Free Homogeneous Dose Retest to Identify Inhibitors of RecA-Intein Splicing Activity. [Related pubchem assays (depositor defined):AID2097, AID2223, AID489010, AID492950]; format: functional
T2 sequence (P9WHJ3 whole entry): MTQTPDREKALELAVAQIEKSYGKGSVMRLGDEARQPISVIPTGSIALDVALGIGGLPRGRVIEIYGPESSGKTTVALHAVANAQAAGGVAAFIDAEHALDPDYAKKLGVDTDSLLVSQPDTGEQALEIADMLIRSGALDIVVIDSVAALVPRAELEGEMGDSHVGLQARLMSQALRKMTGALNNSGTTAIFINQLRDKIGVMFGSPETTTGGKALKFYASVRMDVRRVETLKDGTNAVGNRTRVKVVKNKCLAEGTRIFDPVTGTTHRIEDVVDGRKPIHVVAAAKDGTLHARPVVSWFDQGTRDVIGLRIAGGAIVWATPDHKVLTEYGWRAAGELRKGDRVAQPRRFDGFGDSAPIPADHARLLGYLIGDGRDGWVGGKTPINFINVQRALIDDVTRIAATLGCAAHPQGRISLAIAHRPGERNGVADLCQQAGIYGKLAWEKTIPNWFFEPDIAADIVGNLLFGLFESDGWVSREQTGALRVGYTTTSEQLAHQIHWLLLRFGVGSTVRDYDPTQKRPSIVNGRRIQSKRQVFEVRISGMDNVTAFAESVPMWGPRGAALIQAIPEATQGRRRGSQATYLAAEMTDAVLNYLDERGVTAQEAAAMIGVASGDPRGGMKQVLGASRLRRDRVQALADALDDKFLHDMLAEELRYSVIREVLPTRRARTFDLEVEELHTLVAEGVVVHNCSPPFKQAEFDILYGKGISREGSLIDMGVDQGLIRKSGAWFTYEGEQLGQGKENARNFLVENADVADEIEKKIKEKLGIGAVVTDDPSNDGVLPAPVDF

[2] = molecular target: T3, Replicative DNA helicase DnaB (Mycobacterium tuberculosis, UniProt P9WMR3); assay: DnaB intein splicing inhibitors, dose response, biochemical, cell-free fluorescence (AID 449749); format: functional
T3 sequence (P9WMR3 whole entry): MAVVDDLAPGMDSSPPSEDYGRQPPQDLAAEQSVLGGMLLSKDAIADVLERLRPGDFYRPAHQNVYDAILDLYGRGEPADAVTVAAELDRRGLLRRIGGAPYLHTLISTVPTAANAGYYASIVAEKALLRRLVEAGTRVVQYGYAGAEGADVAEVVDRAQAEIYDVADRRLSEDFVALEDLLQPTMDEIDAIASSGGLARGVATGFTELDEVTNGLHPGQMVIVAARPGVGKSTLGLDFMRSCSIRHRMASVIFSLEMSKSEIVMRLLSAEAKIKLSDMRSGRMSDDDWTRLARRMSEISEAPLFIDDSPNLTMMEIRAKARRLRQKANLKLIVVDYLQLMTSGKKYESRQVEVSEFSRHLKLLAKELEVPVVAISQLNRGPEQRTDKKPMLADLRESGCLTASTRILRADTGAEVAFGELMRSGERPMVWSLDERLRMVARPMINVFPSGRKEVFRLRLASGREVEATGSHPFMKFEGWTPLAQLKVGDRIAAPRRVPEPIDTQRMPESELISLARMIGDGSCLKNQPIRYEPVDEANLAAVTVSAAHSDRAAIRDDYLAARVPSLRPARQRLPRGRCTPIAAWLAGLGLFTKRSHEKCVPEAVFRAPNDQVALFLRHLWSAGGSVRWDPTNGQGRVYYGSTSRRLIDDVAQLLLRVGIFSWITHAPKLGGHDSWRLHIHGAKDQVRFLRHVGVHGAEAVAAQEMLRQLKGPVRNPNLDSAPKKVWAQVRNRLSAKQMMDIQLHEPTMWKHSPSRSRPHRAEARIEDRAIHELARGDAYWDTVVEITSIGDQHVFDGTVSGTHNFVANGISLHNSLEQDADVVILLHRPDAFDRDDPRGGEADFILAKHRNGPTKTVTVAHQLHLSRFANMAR

[3] = molecular target: T4, Heat shock factor protein 1 (Mus musculus, UniProt P38532); assay: decrease of HSF1-responsive luciferase luminescence – cell-based, NIH3T3, dose retest, confirmation (AID 2382); format: functional;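 also: NIH3T3 fibroblasts with HSF1-driven luciferase reporter stressed by proteasome inhibitor MG132; luminescence from HSF1-driven luciferase expression after 8 hours of MG132 stress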
T4 sequence (P38532 whole entry): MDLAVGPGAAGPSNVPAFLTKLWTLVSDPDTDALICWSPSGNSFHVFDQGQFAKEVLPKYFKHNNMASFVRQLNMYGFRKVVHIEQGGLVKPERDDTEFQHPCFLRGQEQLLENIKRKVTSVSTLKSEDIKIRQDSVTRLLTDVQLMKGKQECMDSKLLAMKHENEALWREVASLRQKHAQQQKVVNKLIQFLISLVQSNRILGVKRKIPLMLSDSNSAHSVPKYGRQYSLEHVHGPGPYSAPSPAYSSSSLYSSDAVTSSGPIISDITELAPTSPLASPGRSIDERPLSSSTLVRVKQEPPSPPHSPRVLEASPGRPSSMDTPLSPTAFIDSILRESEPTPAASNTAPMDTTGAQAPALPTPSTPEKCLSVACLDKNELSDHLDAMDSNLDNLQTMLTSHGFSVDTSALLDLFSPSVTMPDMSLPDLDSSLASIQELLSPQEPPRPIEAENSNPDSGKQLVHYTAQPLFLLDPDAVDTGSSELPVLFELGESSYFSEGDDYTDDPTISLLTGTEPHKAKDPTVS

Cytochrome P450 3A4 = Cytochrome P450 3A4 (Homo sapiens, UniProt P08684);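 also: CYP3A4 tested as one member of a cytochrome P450 panel screen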
Chain of Cytochrome P450 3A4 (P08684 whole entry): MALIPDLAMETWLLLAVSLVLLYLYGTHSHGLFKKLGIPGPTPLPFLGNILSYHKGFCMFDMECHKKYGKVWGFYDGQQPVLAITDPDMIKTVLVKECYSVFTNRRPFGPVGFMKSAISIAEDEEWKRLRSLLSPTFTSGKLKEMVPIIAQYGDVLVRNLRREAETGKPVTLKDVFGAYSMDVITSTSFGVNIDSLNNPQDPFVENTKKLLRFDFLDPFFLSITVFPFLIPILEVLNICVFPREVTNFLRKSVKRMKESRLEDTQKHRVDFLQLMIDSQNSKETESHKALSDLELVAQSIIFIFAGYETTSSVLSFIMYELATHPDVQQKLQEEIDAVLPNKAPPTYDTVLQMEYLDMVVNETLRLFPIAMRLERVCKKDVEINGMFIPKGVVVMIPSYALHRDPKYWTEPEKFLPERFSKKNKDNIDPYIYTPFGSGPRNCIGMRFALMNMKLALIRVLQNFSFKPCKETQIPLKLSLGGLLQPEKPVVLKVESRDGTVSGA

Cytochrome P450 2D6 = Cytochrome P450 2D6 (Homo sapiens, UniProt P10635);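 also: CYP2D6 member of a cytochrome P450 panel assay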
Chain of Cytochrome P450 2D6 (P10635 whole entry): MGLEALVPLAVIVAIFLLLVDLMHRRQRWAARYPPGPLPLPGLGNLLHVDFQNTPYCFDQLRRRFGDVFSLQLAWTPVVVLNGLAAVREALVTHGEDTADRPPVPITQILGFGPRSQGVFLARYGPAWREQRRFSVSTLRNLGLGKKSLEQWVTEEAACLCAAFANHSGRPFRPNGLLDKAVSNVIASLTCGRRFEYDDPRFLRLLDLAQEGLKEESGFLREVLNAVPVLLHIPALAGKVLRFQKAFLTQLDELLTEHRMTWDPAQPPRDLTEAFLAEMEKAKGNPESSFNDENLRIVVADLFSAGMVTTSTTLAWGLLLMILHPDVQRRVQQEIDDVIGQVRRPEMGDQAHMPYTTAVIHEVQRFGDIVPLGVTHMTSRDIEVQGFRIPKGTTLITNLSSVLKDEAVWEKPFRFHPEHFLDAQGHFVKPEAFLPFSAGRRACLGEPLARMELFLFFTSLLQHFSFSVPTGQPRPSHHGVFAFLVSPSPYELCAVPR

H4 = assay: Luminescence Cell-Based Dose Response HTS to Identify Activators of 5'UTR Stem-Loop Driven Prion Protein mRNA Translation in H4 Neuroglioblastoma Cells. [Related pubchem assays: 1829 (Project Summary), 1814 (Primary HTS)]; format: functional; conditions: Homo sapiens
[4] = Luminescence Cell-Based Dose Response HTS to Identify Activators of Luciferase Translation or Activity in H4 […] Cells. [Related pubchem assays: 1829 (Project Summary), 1814 (Primary HTS)]; format: functional

CCn1c(SCC(=O)N2CC(C)OC(C)C2)nc2c3ccccc3nc-2c1O (stereo not given)
EC50 (Streptococcus): > 150 µM (not active)
EC50 [1]: > 150 µM (not active)
EC50 (Streptokinase A): > 150 µM (not active)

ClCc1nnc(-c2cc3c(s2)CCCC3)o1
EC50 (Protein RecA): 3.55 µM (active)
AC50 [2]: 10.7 µM (active)

CCOC(=O)c1cccc(NC(=S)N2CCN(c3ncc4c(=O)c(C(=O)O)cn(CC)c4n3)CC2)c1
EC50 (Streptococcus): 29.9 µM (active)
EC50 [1]: 5.98 µM (active)
EC50 (Streptokinase A): > 150 µM (not active)

O=C(OC(C(=O)NC1CCCC1)c1ccncc1)C1=Cc2ccccc2OC1 (stereo not given)
EC50 [3]: > 195 µM (not active)

O=C(CN1C(=O)NC(Cc2ccccc2)C1=O)Nc1ccc(OC(F)F)cc1 (stereo not given)
EC50 [3]: > 195 µM (not active)

COc1ccc(C(=O)CSc2nnc(CNC(=O)c3ccc(S(=O)(=O)N(C)C)cc3)o2)cc1
EC50 (Streptococcus): > 150 µM (not active)
EC50 [1]: > 150 µM (not active)
EC50 (Streptokinase A): > 150 µM (not active)

O=C(Nc1ncc(Cc2cccc(Cl)c2)s1)c1cccs1
EC50 (Streptococcus): 7.17 µM (active)
EC50 [1]: 3.67 µM (active)
AC50 (Cytochrome P450 3A4): 15.8 µM (inconclusive)
AC50 (Cytochrome P450 2D6): 7.08 µM (inconclusive)
EC50 (Streptokinase A): > 150 µM (not active)

COc1ccc(/C(C)=N/NC(=O)CNC(=O)/C=C\c2ccccc2)c(OC)c1
EC50 [3]: > 195 µM (not active)

Oc1cc(-c2ccccc2)n[nH]1
EC50 (Protein RecA): 0.517 µM (active)
AC50 [2]: 1.43 µM (active)

Clc1ccc2[nH]c(-c3ccc(Cl)nc3)nc2c1
EC50 (H4): > 120 µM (not active)
EC50 [4]: 22.3 µM (active)

O=C(CSc1nnc(CNC(=O)c2ccc(F)cc2)o1)NCc1ccccc1
EC50 (Streptococcus): > 150 µM (not active)
EC50 [1]: > 150 µM (not active)
EC50 (Streptokinase A): > 150 µM (not active)

Cc1cc(C)c2c(n1)sc1c(O)nc(SCc3ccccc3)nc12
EC50 [3]: > 195 µM (not active)

COc1ccc(CCNCc2ccsc2)cc1OC
EC50 [3]: > 195 µM (not active)

COc1cccc(-n2nc(-c3ccnn3-c3cccc(Cl)c3)c(=O)n(C)c2=O)c1
EC50 [3]: > 195 µM (not active)

CCOC(=O)/C=c1\s/c(=C(\C#N)C(N)=O)n(-c2ccccc2)c1=O
EC50 (Protein RecA): > 380 µM (inconclusive)
AC50 [2]: 9.68 µM (active)

COc1ccc(CCNCC(O)Cn2ccc3ccccc32)cc1OC (stereo not given)
EC50 [3]: > 100 µM (not active)

Oc1ccc(Nc2nc(-c3ccc(O)cc3)cs2)cc1
EC50 (Protein RecA): 43.8 µM (active)
AC50 [2]: 111 µM (active)

CCOC(=O)c1ccc(CC2S/C(=C(\C#N)C(C)=O)NC2=O)cc1 (stereo not given)
EC50 (Protein RecA): > 380 µM (inactive)
AC50 [2]: > 380 µM (inactive)

Cc1n[nH]c2c1C1(CCN(C(=O)c3ccccc3)CC1)C(C#N)=C(N)O2
EC50 (Protein RecA): 1.3 µM (active)
AC50 [2]: 7.89 µM (active)

CN1CCN(S(=O)(=O)c2ccc(Oc3ccc(F)c(Cl)c3)nc2)CC1
EC50 [3]: > 195 µM (not active)

C=CCSc1nc(-c2ccccc2)c2cc(Cl)ccc2n1
EC50 (Streptococcus): 46.4 µM (active)
EC50 [1]: 15 µM (active)
EC50 (Streptokinase A): 29.4 µM (active)

CCN(CC(=O)Nc1ccccc1C(F)(F)F)C(=O)c1cc(-c2ccccc2)nn1-c1ccccc1
EC50 (Streptococcus): > 150 µM (not active)
EC50 [1]: 19.9 µM (active)
EC50 (Streptokinase A): 23.9 µM (active)

COc1ccc(C2/C(=C(\O)c3ccccc3)C(C)=Nc3nc4ccccc4n32)c(OC)c1 (stereo not given)
EC50 (Streptococcus): 37.3 µM (active)
EC50 [1]: 14.5 µM (active)
EC50 (Streptokinase A): > 150 µM (not active)

Cc1cc(=O)n2nc(-c3ccc(C(F)(F)F)cc3)sc2n1
EC50 (H4): 8.75 µM (active)
EC50 [3]: > 195 µM (not active)
EC50 [4]: > 120 µM (not active)

CCCCN(C(=O)c1cccc2c(=O)c(C)c(-c3ccccc3)oc12)c1ccccc1
EC50 (Protein RecA): 15.2 µM (active)
AC50 [2]: 4.15 µM (active)

Cc1onc(-c2ccccc2Cl)c1C(=O)Nc1ccc(OCC(=O)N2CCOCC2)cc1
EC50 [3]: > 195 µM (not active)

CCN(c1ccc(OC)cc1)S(=O)(=O)c1nnc(NC(=O)c2ccccc2Cl)s1
EC50 (Streptococcus): 99.3 µM (active)
EC50 [1]: 9.51 µM (active)
EC50 (Streptokinase A): 5.58 µM (active)

Cc1ccc(Cn2c(Sc3ncccn3)nc3c2c(=O)[nH]c(=O)n3C)cc1
EC50 [3]: > 195 µM (not active)

CCCCOc1ccc(/N=C/c2ccc[nH]2)cc1
EC50 [3]: 33 µM (active)

COc1ccc(-c2cc(C3CCN(c4ncccc4[N+](=O)[O-])CC3)[nH]n2)cc1
EC50 (Streptococcus): 13 µM (active)
EC50 [1]: 4.96 µM (active)
EC50 (Streptokinase A): > 150 µM (not active)

COCCn1c(N)c(Sc2ccccc2[N+](=O)[O-])c(=O)[nH]c1=O
EC50 [3]: > 195 µM (not active)

CNC(=O)c1ccsc1NC(=O)c1ccc(Cl)s1
EC50 [3]: > 195 µM (not active)

Cc1ccc(Cn2c(=O)n(Cc3ccco3)c(=O)c3ccccc32)cc1
EC50 (Streptococcus): > 150 µM (not active)
EC50 [1]: 21.1 µM (active)
EC50 (Streptokinase A): > 150 µM (not active)

CCOc1ccc(N(CC(=O)NN=C2CCCC2)S(C)(=O)=O)cc1
EC50 [3]: > 195 µM (not active)

O=C(c1cc(Br)c[nH]1)N1CCSCC1
EC50 [3]: > 195 µM (not active)

CN(CC(=O)Nc1ccc(F)cc1)C(=O)COC(=O)c1cc(S(=O)(=O)N(C)C)ccc1N1CCCC1
EC50 [3]: > 195 µM (not active)
